Where two headings read alike, the source gives them in different places.

Test [1] concerns B16F10, mouse melanoma cells. The experiment in a line: Proliferation assay, B16F10 (crystal violet). The format is cell-based. To be noted: B16F10, 4 days, read-out: Inhibition of B16F10 cell proliferation IC50. The method, then:
(§1) Cultivated tumour cells (HeLa, human cervical tumour cells, ATCC CCL-2; NCI-H460, human non-small cell lung carcinoma cells, ATCC HTB-177; A2780, human ovarian carcinoma cells, ECACC #93112519; DU 145, hormone-independent human prostate carcinoma cells, ATCC HTB-81; HeLa-MaTu-ADR, multidrug-resistant human cervical carcinoma cells, EPO-GmbH Berlin; Caco-2, human colorectal carcinoma cells, ATCC HTB-37; B16F10, mouse melanoma cells, ATCC CRL-6475) were plated at a density of 5,000 cells/well (DU145, HeLa-MaTu-ADR), 3,000 cells/well (NCI-H460, HeLa), 2,500 cells/well (A2780), 1,500 cells/well (Caco-2), or 1,000 cells/well (B16F10) in a 96-well multititer plate in 200 μL of their respective growth medium supplemented 10% fetal calf serum. After 24 hours, the cells of one plate (zero-point plate) were stained with crystal violet (see below), while the medium of the other plates was replaced by fresh culture medium (200 μl), to which the test substances were added in various concentrations (0 μM, as well as in the range of 0.001-10 μM; the final concentration of the solvent dimethyl sulfoxide was 0.5%). The cells were incubated for 4 days in the presence of test substances. Cell proliferation was determined by staining the cells with crystal violet: the cells were fixed by adding 20 μl/measuring point of an 11% glutaric aldehyde solution for 15 minutes at room temperature. After three washing cycles of the fixed cells with water, the plates were dried at room temperature. The cells were stained by adding 100 μl/measuring point of a 0.1% crystal violet solution (pH 3.0). After three washing cycles of the stained cells with water, the plates were dried at room temperature. The dye was dissolved by adding 100 μl/measuring point of a 10% acetic acid solution. The extinction was determined by photometry at a wavelength of 595 nm. The change of cell number, in percent, was calculated by normalization of the measured values to the extinction values of the zero-point plate (=0%) and the extinction of the untreated (0 μm) cells (=100%). The IC50 values (inhibitory concentration at 50% of maximal effect) were determined by means of a 4 parameter fit. Non-adherent MOLM-13 human acute myeloid leukemia cells (DSMZ ACC 554) were seeded at a density of 5,000 cells/well in a 96-well multititer plate in 100 μL of growth medium supplemented 10% fetal calf serum. After 24 hours, cell viability of one plate (zero-point plate) was determined with the Cell Titre-Glo Luminescent Cell Viability Assay (Promega), while 50 μL of test compound containing medium was added to the wells of the other plates (final concentrations in the range of 0.001-10 μM and DMSO controls; the final concentration of the solvent dimethyl sulfoxide was 0.5%). Cell viability was assessed after 72-hour exposure with the Cell Titre-Glo Luminescent Cell Viability Assay (Promega).

Test [2] concerns the target T1, CDK9/CycT1 (Homo sapiens, UniProt P50750).
T1 construct: Recombinant full-length His-tagged human CDK9 and CycT1; His; purchased Invitrogen PV4131; host or cells: insect cells
The experiment in a line: CDK9/CycT1 high ATP kinase assay (TR-FRET, 2 mM ATP). The format is biochemical. Conditions: Method 1b. On the procedure:
1b. CDK9/CyeT1 High ATP Kinase Assay
CDK9/CycT1-inhibitory activity of compounds of the present invention at a high ATP concentration after preincubation of enzyme and test compounds was quantified employing the CDK9/CycT1 TR-FRET assay as described in the following paragraphs.
Recombinant full-length His-tagged human CDK9 and CycT1, expressed in insect cells and purified by Ni-NTA affinity chromatography, were purchase from Invitrogen (Cat. No PV4131). As substrate for the kinase reaction biotinylated peptide biotin-Ttds-[…] (C-terminus in amid form) was used which can be purchased e.g. form the company JERINI peptide technologies (Berlin, Germany). For the assay 50 nl of a 100 fold concentrated solution of the test compound in DMSO was pipetted into a black low volume 384 well microtiter plate (Greiner Bio-One, Frickenhausen, Germany), 2 μl of a solution of CDK9/CycT1 in aqueous assay buffer [50 mM Tris/HCl pH 8.0, 10 mM MgCl2, 1.0 mM dithiothreitol, 0.1 mM sodium ortho-vanadate, 0.01% (v/v) Nonidet-P40 (Sigma)] were added and the mixture was incubated for 15 min at 22° C. to allow pre-binding of the test compounds to the enzyme before the start of the kinase reaction. Then the kinase reaction was started by the addition of 3 μl of a solution of adenosine-tri-phosphate (ATP, 3.3 mM=>final conc. in the 5 μl assay volume is 2 mM) and substrate (1.67 μM=>final conc. in the 5 μl assay volume is 1 μM) in assay buffer and the resulting mixture was incubated for a reaction time of 25 min at 22° C.
The resulting mixture was incubated 1 h at 22° C. to allow the formation of complex between the phosphorylated biotinylated peptide and the detection reagents. Subsequently the amount of phosphorylated substrate was evaluated by measurement of the resonance energy transfer from the Eu-chelate to the streptavidine-XL. Therefore, the fluorescence emissions at 620 nm and 665 nm after excitation at 350 nm was measured in a HTRF reader, e.g. a Rubystar (BMG Labtechnologies, Offenburg, Germany) or a Viewlux (Perkin-Elmer). The ratio of the emissions at 665 nm and at 622 nm was taken as the measure for the amount of phosphorylated substrate.

Test [3] deals with DU 145, hormone-independent human prostate carcinoma cells. Kind of test: Proliferation assay, DU145 (crystal violet). The format is cell-based. To be noted: DU145, 4 days, read-out: Inhibition of DU145 cell proliferation IC50. The method, then:
as §1

In test [4] the test system is NCI-H460, human non-small cell lung carcinoma cells. The experiment in a line: Proliferation assay, NCI-H460 (crystal violet). The format is cell-based. To be noted: NCI-H460, 4 days, read-out: Inhibition of NCI-H460 cell proliferation IC50. On the procedure: as §1

T1 sequence (P50750 whole entry): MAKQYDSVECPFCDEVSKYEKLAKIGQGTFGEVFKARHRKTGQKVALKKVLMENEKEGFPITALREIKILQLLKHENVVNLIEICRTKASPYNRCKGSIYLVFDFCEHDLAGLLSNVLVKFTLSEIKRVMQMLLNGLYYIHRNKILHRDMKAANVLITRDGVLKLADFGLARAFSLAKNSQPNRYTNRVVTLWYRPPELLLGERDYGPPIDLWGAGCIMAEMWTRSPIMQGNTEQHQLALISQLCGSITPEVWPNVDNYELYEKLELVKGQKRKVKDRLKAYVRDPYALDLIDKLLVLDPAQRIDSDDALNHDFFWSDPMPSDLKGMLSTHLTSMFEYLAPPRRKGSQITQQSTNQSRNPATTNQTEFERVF
T1 sequence (O60563 whole entry partner): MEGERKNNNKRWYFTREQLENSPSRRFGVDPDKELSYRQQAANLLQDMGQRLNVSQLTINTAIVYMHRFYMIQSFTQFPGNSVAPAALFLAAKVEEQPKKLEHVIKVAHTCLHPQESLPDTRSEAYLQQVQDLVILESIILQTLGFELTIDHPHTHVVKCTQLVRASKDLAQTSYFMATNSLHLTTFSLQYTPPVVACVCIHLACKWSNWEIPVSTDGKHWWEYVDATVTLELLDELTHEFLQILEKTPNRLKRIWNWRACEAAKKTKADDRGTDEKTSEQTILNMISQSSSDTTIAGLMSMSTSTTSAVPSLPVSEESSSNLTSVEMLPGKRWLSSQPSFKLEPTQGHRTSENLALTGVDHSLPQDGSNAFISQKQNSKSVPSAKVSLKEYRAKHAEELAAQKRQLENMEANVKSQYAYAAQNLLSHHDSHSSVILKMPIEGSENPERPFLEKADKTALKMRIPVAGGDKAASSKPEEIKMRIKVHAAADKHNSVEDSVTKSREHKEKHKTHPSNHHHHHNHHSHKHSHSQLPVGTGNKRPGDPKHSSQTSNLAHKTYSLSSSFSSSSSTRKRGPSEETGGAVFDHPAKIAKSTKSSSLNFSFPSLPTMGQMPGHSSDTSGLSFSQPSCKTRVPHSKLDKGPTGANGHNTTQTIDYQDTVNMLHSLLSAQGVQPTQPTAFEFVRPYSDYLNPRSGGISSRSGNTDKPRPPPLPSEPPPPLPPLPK

Turning to `CCOc1cc(F)ccc1-c1cc(Nc2cc(CS(C)(=N)=O)cc(F)n2)ncc1F` (single isomer, unassigned; (-)) [Example 29, (−)-4-(2-Ethoxy-4-fluorophenyl)-5-fluoro-N-{6-fluoro-4-[(S-methylsulfonimidoyl)methyl]pyridin-2-yl}pyridin-2-amine], the IC50 was determined as 110 nM in test [1], 4 nM in test [2], 110 nM in test [3] and 150 nM in test [4].

For the compound `COc1cc(F)ccc1-c1cc(Nc2cc(CS(C)(=N)=O)cc(C(F)(F)F)n2)ncc1F` (single isomer, unassigned; (+)) [Example 22, (+)-5-Fluoro-4-(4-fluoro-2-methoxyphenyl)-N-{4-[(S-methylsulfonimidoyl)methyl]-6-(trifluoromethyl)pyridin-2-yl}pyridin-2-amine], the IC50 was determined as 51 nM in test [1] (Mus musculus, B16-F10, 96 h); 1 nM in test [2]; 32 nM in test [3] (Homo sapiens, DU-145, 96 h); 34 nM in test [4] (Homo sapiens, NCI-H460, 96 h).

Turning to `COc1cc(F)ccc1-c1cc(Nc2cc(CS(C)(=N)=O)cc(C)n2)ncc1F` (racemic) [Example 4, (rac)-5-Fluoro-4-(4-fluoro-2-methoxyphenyl)-N-{6-methyl-4-[(S-methylsulfonimidoyl)methyl]pyridin-2-yl}pyridin-2-amine], the IC50 is 100 nM in test [1] (Mus musculus, B16-F10, 96 h); 2 nM in test [2]; 67 nM in test [3] (Homo sapiens, DU-145, 96 h); 97 nM in test [4] (Homo sapiens, NCI-H460, 96 h).

For `COc1cc(F)ccc1-c1cc(Nc2cc(CS(C)(=N)=O)cc(F)n2)ncc1F` (single isomer, unassigned; (-)) [Example 20, (−)-5-Fluoro-4-(4-fluoro-2-methoxyphenyl)-N-{6-fluoro-4-[(S-methylsulfonimidoyl)methyl]pyridin-2-yl}pyridin-2-amine], the IC50 is 54 nM in test [1], 1 nM in test [2], 58 nM in test [3] and 100 nM in test [4].

Consider `COc1cc(F)ccc1-c1cc(Nc2cc(CS(C)(=O)=NC(=O)C(F)(F)F)cc(C(F)(F)F)n2)ncc1F` (single isomer, unassigned; (+)) [Example 24, (+)-2,2,2-Trifluoro-N-[{[2-{[5-fluoro-4-(4-fluoro-2-methoxyphenyl)pyridin-2-yl]amino}-6-(trifluoromethyl)-pyridin-4-yl]methyl}(methyl)oxido-λ^6-sulfanylidene]acetamide], for which the IC50 in test [1] (Mus musculus, B16-F10, 96 h) is 43 nM; in test [2], 27 nM; in test [3] (Homo sapiens, DU-145, 96 h), 33 nM; in test [4] (Homo sapiens, NCI-H460, 96 h), 33 nM.

For `COc1cc(F)ccc1-c1cc(Nc2cc(CS(C)(=O)=NC(=O)C(F)(F)F)cc(C(F)(F)F)n2)ncc1F` (single isomer, unassigned; (-)) [Example 25, (−)-2,2,2-Trifluoro-N-[{[2-{[5-fluoro-4-(4-fluoro-2-methoxyphenyl)pyridin-2-yl]amino}-6-(trifluoromethyl)-pyridin-4-yl]methyl}(methyl)oxido-λ^6-sulfanylidene]acetamide], the IC50 in test [1] is 50 nM; in test [2], 13 nM; in test [3], 37 nM; in test [4], 36 nM.

With `COc1cc(F)ccc1-c1cc(Nc2cc(CS(=N)(=O)CCO)ccn2)ncc1F` (racemic) [Example 8, (rac)-2-{S-[(2-{[5-Fluoro-4-(4-fluoro-2-methoxyphenyl)pyridin-2-yl]amino}pyridin-4-yl)methyl]sulfonimidoyl}ethanol], the IC50 in test [1] (Mus musculus, B16-F10, 96 h) came out at 186 nM; in test [2], 14 nM; in test [3] (Homo sapiens, DU-145, 96 h) it was 110 nM; in test [4] (Homo sapiens, NCI-H460, 96 h), 290 nM.

(Values after US9650340B2, “5-fluoro-N-(pyridin-2-yl)pyridin-2-amine derivatives containing a sulfoximine group” (BAYER PHARMA AKTIENGESELLSCHAFT, priority 2012, dated 2017).)
